# System: SEM cells
# Experiment: cell viability relative to DMSO control; higher = less cytotoxic
# Details: 48 h
# In short: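 Cells were incubated for 48 h at 37°C before CellTiter-Glo One luminescence was read. The cells were NOMO1 or SEM (500 cells/well) or P12-Ichikawa (1000 cells/well) leukemia cells, adapted for at least four passages in each medium and seeded in 1536-well plates (5 μl). Dosing used library compounds in DMSO applied by pin over 11 threefold points, 47 μM to 0.79 nM. Viability is the per-plate percentage of DMSO wells, with cell-free wells as background.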
# [1] = HPLM + 10% dialyzed FBS, 0.000781 µM
# [2] = HPLM + 10% dialyzed FBS, 0.00234 µM
# [3] = HPLM + 10% dialyzed FBS, 0.00702 µM
# [4] = HPLM + 10% dialyzed FBS, 0.0211 µM
# [5] = HPLM + 10% dialyzed FBS, 0.0632 µM
# [6] = HPLM + 10% dialyzed FBS, 0.19 µM
# [7] = HPLM + 10% dialyzed FBS, 0.569 µM
# [8] = HPLM + 10% dialyzed FBS, 1.71 µM
# [9] = HPLM + 10% dialyzed FBS, 5.12 µM
# [10] = HPLM + 10% dialyzed FBS, 15.4 µM
# [11] = HPLM + 10% dialyzed FBS, 46.1 µM
# [12] = RPMI 5 mM glucose + 10% FBS, 0.000781 µM
# [13] = RPMI 5 mM glucose + 10% FBS, 0.00234 µM
# [14] = RPMI 5 mM glucose + 10% FBS, 0.00702 µM
# [15] = RPMI 5 mM glucose + 10% FBS, 0.0211 µM
# [16] = RPMI 5 mM glucose + 10% FBS, 0.0632 µM
# [17] = RPMI 5 mM glucose + 10% FBS, 0.19 µM
# [18] = RPMI 5 mM glucose + 10% FBS, 0.569 µM
# [19] = RPMI 5 mM glucose + 10% FBS, 1.71 µM
# [20] = RPMI 5 mM glucose + 10% FBS, 5.12 µM
# [21] = RPMI 5 mM glucose + 10% FBS, 15.4 µM
# [22] = RPMI 5 mM glucose + 10% FBS, 46.1 µM
# [23] = RPMI 5 mM glucose + 10% dialyzed FBS, 0.000781 µM
# [24] = RPMI 5 mM glucose + 10% dialyzed FBS, 0.00234 µM
# [25] = RPMI 5 mM glucose + 10% dialyzed FBS, 0.00702 µM
# [26] = RPMI 5 mM glucose + 10% dialyzed FBS, 0.0211 µM
# [27] = RPMI 5 mM glucose + 10% dialyzed FBS, 0.0632 µM
# [28] = RPMI 5 mM glucose + 10% dialyzed FBS, 0.19 µM
# [29] = RPMI 5 mM glucose + 10% dialyzed FBS, 0.569 µM
# [30] = RPMI 5 mM glucose + 10% dialyzed FBS, 1.71 µM
# [31] = RPMI 5 mM glucose + 10% dialyzed FBS, 5.12 µM
# [32] = RPMI 5 mM glucose + 10% dialyzed FBS, 15.4 µM
# [33] = RPMI 5 mM glucose + 10% dialyzed FBS, 46.1 µM
Compound,cell viability [1] [%],cell viability [2] [%],cell viability [3] [%],cell viability [4] [%],cell viability [5] [%],cell viability [6] [%],cell viability [7] [%],cell viability [8] [%],cell viability [9] [%],cell viability [10] [%],cell viability [11] [%],cell viability [12] [%],cell viability [13] [%],cell viability [14] [%],cell viability [15] [%],cell viability [16] [%],cell viability [17] [%],cell viability [18] [%],cell viability [19] [%],cell viability [20] [%],cell viability [21] [%],cell viability [22] [%],cell viability [23] [%],cell viability [24] [%],cell viability [25] [%],cell viability [26] [%],cell viability [27] [%],cell viability [28] [%],cell viability [29] [%],cell viability [30] [%],cell viability [31] [%],cell viability [32] [%],cell viability [33] [%]
O=C(Oc1ccc([N+](=O)[O-])cc1)N1CCN(Cc2cccc(Oc3ccccc3)c2)CC1,94.6,100,93.4,106,103,64.4,120,116,107,107,121,90.4,86.1,99.5,106,93.6,67.1,111,106,102,95.9,101,112,108,108,125,115,60.9,109,108,114,110,121
CCCCc1oc2ccc(NS(C)(=O)=O)cc2c1C(=O)c1ccc(OCCCN(CCCC)CCCC)cc1,62.8,66,80.9,87.6,92.6,86.6,101,98.7,70.2,78.6,8.35,88.9,87.5,98.2,109,95.6,92.6,101,108,96.3,94.1,14.9,94.8,94.1,98.4,108,107,99.3,100,109,97,94.7,6.45
CN[C@@H](C)C(=O)N[C@H]1CCCC[C@H]2CC[C@@H](C(=O)N[C@@H](c3ccccc3)c3cn(CCCCc4ccc(CCCCn5cc([C@@H](NC(=O)[C@@H]6CC[C@@H]7CCCC[C@H](NC(=O)[C@H](C)NC)C(=O)N76)c6ccccc6)nn5)cc4)nn3)N2C1=O,73.5,96.1,90.5,100,90.5,89.2,88.1,91,92.2,103,69.2,90.3,97.9,94.9,95.6,83.4,89.5,82.2,87.2,94.8,85,35.3,95.8,90.5,82,95.2,99.4,86.8,82.3,95.3,82.4,84.4,54.4
Cc1ccccc1C(C(=O)NC1CCCCC1)N(C(=O)CNc1ccc(C#N)cc1)c1cccc(F)c1 (stereo not drawn),88.7,116,119,121,124,118,118,105,118,103,111,113,118,105,106,105,119,103,96.9,95,93.4,106,85,107,119,95.4,97,103,91.6,108,97.6,101,89.5
CCOP(=O)(OCC)C(C)NC(=O)N(CCCl)N=O (stereo not drawn),101,109,125,114,126,128,129,122,119,127,94.9,90.7,98.1,98.7,104,101,111,78.4,95.5,87.1,84.6,74.4,108,97,116,122,112,127,127,137,107,103,81.2
C[C@H]1CCC/C=C/C2C[C@H](O)C[C@H]2[C@H](O)/C=C/C(=O)O1 (stereo partly drawn),15.7,31.7,17.9,5.79,5.21,5.3,5,4.73,2.72,2.09,2.38,11.4,54.4,44.6,9.33,5.67,6.09,5.62,4.83,3.32,3.06,2.16,4.97,29.4,23.6,5.2,4.1,3.92,3.96,3.5,2,1.85,1.45
CN1C(=O)COc2c(C(=O)NC3CN4CCC3CC4)cc(Cl)cc21 (stereo not drawn),114,112,119,100,116,101,118,101,112,105,101,91.7,93.7,94,96.6,104,95.7,109,90.6,88.5,95.5,84.9,116,120,125,122,118,126,107,109,97.6,131,124
N=C(N)c1ccc(OCCCCCOc2ccc(C(=N)N)cc2)cc1,72.7,115,112,125,123,127,118,122,106,101,46.4,,,,,,,,,,,,64.9,111,146,138,121,118,105,103,113,120,57.8
